In patent US20100092427A1, “Pyridinone Diketo Acids: Inhibitors of HIV Replication in Combination Therapy” (THE UNIVERSITY OF GEORGIA RESEARCH FOUNDATION, priority 2006, published 2010):
Read-outs that look alike come from different tables or passages of the source.

Assays:
HIVNL4-3 = assay: anti-HIV data in PBMC for the clinical isolate HIVNL4-3; assay type: cell-based
PBMC = assay: cytotoxicity (CC95) in PBMC, same anti-HIV study
physchem = settings: buffer, pH 7.4
in vitro = settings: human, pooled liver microsomes

half-life (physchem) | half-life (in vitro) | SMILES | EC95 (HIVNL4-3; AZT in the same study) | CC95 (PBMC) | EC95 (HIVNL4-3)
– | – | Cc1cn([C@H]2C[C@H](N=[N+]=[N-])[C@@H](CO)O2)c(=O)[nH]c1=O [AZT, Zidovudine, reference compound] | 9.42 nM | > 1000 nM | –
> 41 h | > 6 h | O=C(O)/C(O)=C/C(=O)c1cc(Cc2ccccc2)cn(Cc2ccccc2)c1=O [Compound 8] | – | > 200000 nM | 610 nM
